We go through 2 molecules from paper PMC8393646, “Metformin Is a Pyridoxal-5′-phosphate (PLP)-Competitive Inhibitor of SHMT2” (Cancers, 2021).

The target in experiment [1] is T1, SHMT2 (mitochondrial serine hydroxymethyltransferase) (Homo sapiens, UniProt P34897).
T1 sequence (P34897 30-504): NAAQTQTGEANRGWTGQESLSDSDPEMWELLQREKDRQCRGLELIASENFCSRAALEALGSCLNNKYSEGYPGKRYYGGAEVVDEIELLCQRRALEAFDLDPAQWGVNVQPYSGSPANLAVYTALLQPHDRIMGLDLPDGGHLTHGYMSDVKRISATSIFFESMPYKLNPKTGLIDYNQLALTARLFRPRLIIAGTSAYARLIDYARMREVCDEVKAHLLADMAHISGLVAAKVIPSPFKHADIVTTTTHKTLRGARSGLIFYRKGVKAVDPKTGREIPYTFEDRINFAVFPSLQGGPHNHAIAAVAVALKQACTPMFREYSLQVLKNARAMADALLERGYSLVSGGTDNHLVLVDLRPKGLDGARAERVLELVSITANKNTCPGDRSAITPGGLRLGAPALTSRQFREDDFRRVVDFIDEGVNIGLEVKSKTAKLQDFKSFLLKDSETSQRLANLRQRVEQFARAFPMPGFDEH
Kind of experiment: spectrophotometric quinonoid-intermediate assay ([…] nm) with purified recombinant enzyme, mixed-type inhibition fit; supported by DSF. The experiment is classed as biochemical.

Experiment [2] has as its target T2, SHMT1 (cytosolic serine hydroxymethyltransferase) (Homo sapiens, UniProt P34896).
T2 sequence (P34896 2-483): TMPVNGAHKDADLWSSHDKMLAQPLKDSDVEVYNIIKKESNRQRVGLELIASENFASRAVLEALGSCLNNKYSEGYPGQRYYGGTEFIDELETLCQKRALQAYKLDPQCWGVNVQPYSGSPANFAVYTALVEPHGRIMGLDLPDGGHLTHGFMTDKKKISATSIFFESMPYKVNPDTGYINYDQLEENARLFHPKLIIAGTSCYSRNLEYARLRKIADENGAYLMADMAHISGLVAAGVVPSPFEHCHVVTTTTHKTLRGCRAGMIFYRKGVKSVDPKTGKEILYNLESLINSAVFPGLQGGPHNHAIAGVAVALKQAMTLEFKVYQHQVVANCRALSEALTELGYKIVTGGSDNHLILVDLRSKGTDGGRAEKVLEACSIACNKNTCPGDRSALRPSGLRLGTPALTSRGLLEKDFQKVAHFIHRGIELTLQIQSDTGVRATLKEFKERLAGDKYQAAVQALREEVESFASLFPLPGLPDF
Put plainly: spectrophotometric quinonoid-intermediate assay ([…] nm) with purified recombinant enzyme. It counts as biochemical.

Experiment [3] deals with T1, SHMT2 (mitochondrial serine hydroxymethyltransferase). Kind of experiment: DSF titration of apo-enzyme with PLP (Tm vs concentration). The experiment is classed as binding. Set-up: apo-SHMT2.

Structures can show the parent of a compound that is named as a salt.

Take `CN(C)C(=N)N=C(N)N` [MET, 1,1-dimethylbiguanide hydrochloride]: the Ki in experiment [1] was determined as 13.3 ± 2.1 mM; in experiment [2], 100 ± 33 mM.
With `Cc1ncc(COP(=O)(O)O)c(C=O)c1O` [PLP, pyridoxal-5′-phosphate], in experiment [3], the Kd is 300 nM.
